Active and inactive are the calls of the source. No cut-off for these calls is given here.
Columns and labels:
[1] = Antiaggregating activity in Homo sapiens (human) platelet rich plasma assessed as ristocetin-induced platelet aggregation at 1 uM incubated for 4 min prior to ristocetin-induction measured for 5.5 min by turbidometric analysis (reference value: 65 to 99%); format: functional
[2] = Antiaggregating activity in Homo sapiens (human) platelet rich plasma assessed as collagen-induced platelet aggregation at 0.6 uM incubated for 4 min prior to collagen-induction measured for 5.5 min by turbidometric analysis (reference value: 50 to 98%); format: functional
[3] = Antiaggregating activity in Homo sapiens (human) platelet rich plasma assessed as disaggregation of arachidonic acid-induced platelet aggregation at 0.06 uM incubated for 4 min prior to arachidonic acid-induction measured for 5.5 min by turbidometric analysis relative to control; format: functional
[4] = test system: Platelet; test: Antiaggregating activity in Homo sapiens (human) platelet rich plasma assessed as inhibition of arachidonic acid-induced platelet aggregation at 3 uM incubated for 4 min prior to arachidonic acid-induction measured for 5.5 min by turbidometric analysis; format: functional, cell-free
[5] = Antiaggregating activity in Homo sapiens (human) platelet rich plasma assessed as collagen-induced platelet aggregation at 1 uM incubated for 4 min prior to collagen-induction measured for 5.5 min by turbidometric analysis (reference value: 50 to 98%); format: functional
[6] = Antiaggregating activity in Homo sapiens (human) platelet rich plasma assessed as ristocetin-induced platelet aggregation at 0.6 uM incubated for 4 min prior to ristocetin-induction measured for 5.5 min by turbidometric analysis (reference value: 65 to 99%); format: functional
[7] = Antiaggregating activity in Homo sapiens (human) platelet rich plasma assessed as ADP-induced platelet aggregation at 0.6 uM incubated for 4 min prior to ADP-induction measured for 5.5 min by turbidometric analysis (reference value: 54 to 88%); format: functional
[8] = test system: Platelet; test: Antiaggregating activity in Homo sapiens (human) platelet rich plasma assessed as inhibition of collagen-induced platelet aggregation at 3 uM incubated for 4 min prior to collagen-induction measured for 5.5 min by turbidometric analysis; format: functional, cell-free
[9] = test system: Platelet; test: Antiaggregating activity in Homo sapiens (human) platelet rich plasma assessed as inhibition of arachidonic acid-induced platelet aggregation at 1 uM incubated for 4 min prior to arachidonic acid-induction measured for 5.5 min by turbidometric analysis; format: functional, cell-free
[10] = test system: Platelet; test: Antiaggregating activity in Homo sapiens (human) platelet rich plasma assessed as inhibition of adrenaline-induced platelet aggregation at 3 uM incubated for 4 min prior to adrenaline-induction measured for 5.5 min by turbidometric analysis; format: functional, cell-free
[11] = test system: Platelet; test: Antiaggregating activity in Homo sapiens (human) platelet rich plasma assessed as inhibition of ristocetin-induced platelet aggregation at 3 uM incubated for 4 min prior to ristocetin-induction measured for 5.5 min by turbidometric analysis; format: functional, cell-free
[12] = Antiaggregating activity in Homo sapiens (human) platelet rich plasma assessed as ADP-induced platelet aggregation at 1 uM incubated for 4 min prior to ADP-induction measured for 5.5 min by turbidometric analysis (reference value: 54 to 88%); format: functional
[13] = test system: Platelet; test: Antiaggregating activity in Homo sapiens (human) platelet rich plasma assessed as inhibition of ADP-induced platelet aggregation at 3 uM incubated for 4 min prior to ADP-induction measured for 5.5 min by turbidometric analysis; format: functional, cell-free
[14] = test system: Platelet; test: Antiaggregating activity in Homo sapiens (human) platelet rich plasma assessed as inhibition of adrenaline-induced platelet aggregation at 1 uM incubated for 4 min prior to adrenaline-induction measured for 5.5 min by turbidometric analysis; format: functional, cell-free
[15] = test system: Platelet; test: Antiaggregating activity in Homo sapiens (human) platelet rich plasma assessed as inhibition of adrenaline-induced platelet aggregation at 0.6 uM incubated for 4 min prior to adrenaline-induction measured for 5.5 min by turbidometric analysis; format: functional, cell-free
[16] = Antiaggregating activity in Homo sapiens (human) platelet rich plasma assessed as ADP-induced platelet aggregation at 2.5 uM incubated for 4 min prior to ADP-induction measured for 5.5 min by turbidometric analysis (reference value: 54 to 88%); format: functional
[17] = Antiaggregating activity in Homo sapiens (human) platelet rich plasma assessed as collagen-induced platelet aggregation at 2.5 uM incubated for 4 min prior to collagen-induction measured for 5.5 min by turbidometric analysis (reference value: 50 to 98%); format: functional
[18] = test system: Platelet; test: Antiaggregating activity in Homo sapiens (human) platelet rich plasma assessed as inhibition of ristocetin-induced platelet aggregation at 2.5 uM incubated for 4 min prior to ristocetin-induction measured for 5.5 min by turbidometric analysis; format: functional, cell-free
[19] = Antiaggregating activity in Homo sapiens (human) platelet rich plasma assessed as arachidonic acid-induced platelet aggregation at 0.6 uM incubated for 4 min prior to arachidonic acid-induction measured for 5.5 min by turbidometric analysis (reference value: 55 to 100%); format: functional
[20] = Antiaggregating activity in Homo sapiens (human) platelet rich plasma assessed as adrenaline-induced platelet aggregation at 2.5 uM incubated for 4 min prior to adrenaline-induction measured for 5.5 min by turbidometric analysis (reference value: 65 to 100%); format: functional
[21] = Antiaggregating activity in Homo sapiens (human) platelet rich plasma assessed as adrenaline-induced platelet aggregation at 1 uM incubated for 4 min prior to adrenaline-induction measured for 5.5 min by turbidometric analysis (reference value: 65 to 100%); format: functional
[22] = Antiaggregating activity in Homo sapiens (human) platelet rich plasma assessed as arachidonic acid-induced platelet aggregation at 1 uM incubated for 4 min prior to arachidonic acid-induction measured for 5.5 min by turbidometric analysis (reference value: 55 to 100%); format: functional

**Q.** Which Activity [1] does the source give for `Cl.O=C(c1cccnc1)N1CCN(c2ncccn2)CC1` here?
**A.** Its Activity is 74%.

**Q.** What about the Activity [2] of the same compound?
**A.** The Activity was 58%.

**Q.** And the Activity [3]?
**A.** Its Activity is 20%.

**Q.** What about the inhibition [4] of the same compound?
**A.** Its inhibition is “Active”.

**Q.** What about the Activity [5] of the same compound?
**A.** Its Activity is 72%.

**Q.** What about the Activity [6] of the same compound?
**A.** Its Activity is 76%.

**Q.** What about the Activity [7] of the same compound?
**A.** Its Activity is 40%.

**Q.** And the inhibition [8]?
**A.** Its inhibition is “Active”.

**Q.** And the inhibition [9]?
**A.** Its inhibition is “Active”.

**Q.** What about the inhibition [10] of the same compound?
**A.** Its inhibition is “Active”.

**Q.** What about the inhibition [11] of the same compound?
**A.** The inhibition was “Active”.

**Q.** What about the Activity [12] of the same compound?
**A.** The Activity was 13%.

**Q.** And the inhibition [13]?
**A.** The inhibition was “Active”.

**Q.** What about the inhibition [14] of the same compound?
**A.** The inhibition was “Active”.

**Q.** What about the inhibition [15] of the same compound?
**A.** Its inhibition is “Active”.

**Q.** Which Activity [1] does the source give for `O=C(c1ccc[n+](Cc2ccccc2)c1)N1CCN(c2ccccc2Cl)CC1.[Cl-]` here?
**A.** The Activity was 89%.

**Q.** And the Activity [16]?
**A.** The Activity was 83%.

**Q.** What about the Activity [17] of the same compound?
**A.** Its Activity is 82%.

**Q.** And the Activity [5]?
**A.** The Activity was 80%.

**Q.** And the inhibition [18]?
**A.** Its inhibition is “Active”.

**Q.** And the Activity [19]?
**A.** Its Activity is 53%.

**Q.** What about the Activity [20] of the same compound?
**A.** Its Activity is 12%.

**Q.** What about the Activity [12] of the same compound?
**A.** The Activity was 83%.

**Q.** What about the Activity [21] of the same compound?
**A.** Its Activity is 75%.

**Q.** What about the Activity [22] of the same compound?
**A.** Its Activity is 67%.

Source: ChEMBL document CHEMBL3046822, “Synthesis, antiplatelet aggregation activity, and molecular modeling study of novel substituted-piperazine analogues” (2011)
